Among the data in the supplement of paper PMC3770661 are L1 promoter activity values, retold here.

SMILES strings stand for the structures. Structures can show the parent of a compound that is named as a salt. ± gives the uncertainty stated by the source.

The test system of this test is HepG2 (L1.3 5'UTR promoter firefly luciferase reporter). Kind of test: L1 promoter activity (FLuc/RLuc) relative to DMSO vehicle control (% of control); higher = stronger L1 promoter activation. How it is done: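 HepG2 cells in 96-well plates were cotransfected with pGL4.11-L1.3 5'UTR (firefly luciferase driven by the human L1.3 5'UTR promoter) and pGL4.74 (HSV-TK Renilla luciferase internal control), then treated with compound for 6 or 24 h. FLuc/RLuc ratio was normalised to the DMSO vehicle control (% of control); concentrations where RLuc fell below 50% of control were excluded (N.D.). Mean of at least two independent experiments in duplicate or quadruplicate.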

Where [1] appears, read: concentration (uM unless unit written): 5, treatment time: 6 h.
[2] abbreviates: concentration (uM unless unit written): 200, treatment time: 6 h.
Setting [3] is: concentration (uM unless unit written): 200, treatment time: 24 h.
The mark [4] stands for this setting: concentration (uM unless unit written): 50, treatment time: 6 h.
Setting [5] is: concentration (uM unless unit written): 50, treatment time: 24 h.
Where [6] appears, read: concentration (uM unless unit written): 100, treatment time: 6 h.
Setting [7] is: concentration (uM unless unit written): 100, treatment time: 24 h.
Where [8] appears, read: concentration (uM unless unit written): 500, treatment time: 6 h.
Where [9] appears, read: concentration (uM unless unit written): 500, treatment time: 24 h.
The mark [10] stands for this setting: concentration (uM unless unit written): 125, treatment time: 6 h.
Where [11] appears, read: concentration (uM unless unit written): 125, treatment time: 24 h.
Setting [12] is: concentration (uM unless unit written): 250, treatment time: 6 h.
Where [13] appears, read: concentration (uM unless unit written): 250, treatment time: 24 h.
[14] abbreviates: concentration (uM unless unit written): 10, treatment time: 6 h.
The mark [15] stands for this setting: concentration (uM unless unit written): 10, treatment time: 24 h.
Setting [16] is: concentration (uM unless unit written): 1, treatment time: 6 h.
Where [17] appears, read: concentration (uM unless unit written): 1, treatment time: 24 h.
[18] abbreviates: concentration (uM unless unit written): 3, treatment time: 6 h.
The mark [19] stands for this setting: concentration (uM unless unit written): 3, treatment time: 24 h.
Setting [20] is: concentration (uM unless unit written): 1000, treatment time: 6 h.
The mark [21] stands for this setting: concentration (uM unless unit written): 1000, treatment time: 24 h.
The mark [22] stands for this setting: concentration (uM unless unit written): 0.5, treatment time: 6 h.
Setting [23] is: concentration (uM unless unit written): 0.5, treatment time: 24 h.

Consider `CNc1ccc2oc(C[C@H]3O[C@@]4(CC[C@H]3C)O[C@H]([C@H](C)C(=O)c3ccc[nH]3)[C@H](C)C[C@H]4C)nc2c1C(=O)O`, for which the L1 promoter activity reads like this: (concentration (uM unless unit written): 0.75, treatment time: 6 h) 57.4 ± 16; (concentration (uM unless unit written): 0.75, treatment time: 24 h) 57.4 ± 4.2; (concentration (uM unless unit written): 1.5, treatment time: 6 h) 52.4 ± 8.8; under setting [1], 54.4 ± 4.2.

On to `Cc1cccc(Nc2cc(Cl)nc(SCC(=O)O)n2)c1C`, for which the L1 promoter activity is, setting by setting: under setting [2], 98.9 ± 11; under setting [3], 82.7 ± 5.2.

Consider `CN(C)CCC(c1ccc(Cl)cc1)c1ccccn1` (racemic) [(±)-Chlorpheniramine maleate salt], for which the L1 promoter activity stood at 91.1 ± 9.6 under setting [4]; 96.2 ± 19 under setting [5]; 101 ± 9.2 under setting [6]; 86.4 ± 8.2 under setting [7]; 84 ± 3.3 under setting [8].

As to `CN1CC=C(c2ccccc2)CC1` [1-Methyl-4-phenyl-1,2,3,6-tetrahydropyridine], the L1 promoter activity is, setting by setting: under setting [8], 115 ± 11; under setting [9], 121 ± 19.

As to `COC1=C(OC)C(=O)c2ccccc2C1=O` [2,3-Dimethoxy-1,4-naphthoquinone], the L1 promoter activity by setting is: (concentration (uM unless unit written): 15, treatment time: 6 h) 119 ± 8.7; (concentration (uM unless unit written): 30, treatment time: 6 h) 119 ± 8.1.

With `O=C(O)CC[N+](=O)[O-]` [3-Nitropropionic acid], the L1 promoter activity is 114 ± 5 under setting [10]; 95.1 ± 5.4 under setting [11]; 112 ± 14 under setting [12]; 94.2 ± 18 under setting [13]; 119 ± 14 under setting [8]; 80.7 ± 11 under setting [9].

Take `C=CCCC(=O)O` [4-Pentenoic acid]: the L1 promoter activity is, setting by setting: (concentration (uM unless unit written): 25000, treatment time: 6 h) 102 ± 2.3; (concentration (uM unless unit written): 25000, treatment time: 24 h) 28.2 ± 0.94; (concentration (uM unless unit written): 50000, treatment time: 6 h) 99.1 ± 4.5; (concentration (uM unless unit written): 50000, treatment time: 24 h) 22.5 ± 1.7; (concentration (uM unless unit written): 100000, treatment time: 6 h) 101 ± 26; (concentration (uM unless unit written): 100000, treatment time: 24 h) 25.8 ± 2.7.

Regarding `Nc1nc(=S)c2[nH]cnc2[nH]1` [6-Thioguanine], the L1 promoter activity by setting is: (concentration (uM unless unit written): 2.5, treatment time: 6 h) 126 ± 16; (concentration (uM unless unit written): 2.5, treatment time: 24 h) 98.6 ± 12; under setting [1], 108 ± 17; (concentration (uM unless unit written): 5, treatment time: 24 h) 102 ± 14; under setting [14], 104 ± 4.2; under setting [15], 97.3 ± 11.

Regarding `C[C@]12CC[C@@H]3c4ccc(O)cc4CC[C@H]3[C@@H]1CC[C@@H]2O` [17β-Estradiol], the L1 promoter activity runs as follows: (concentration (uM unless unit written): 25, treatment time: 6 h) 101 ± 6.5; (concentration (uM unless unit written): 25, treatment time: 24 h) 104 ± 11; under setting [4], 119 ± 8.4; under setting [5], 103 ± 16; under setting [6], 107 ± 7.5; under setting [7], 102 ± 15.

In the case of `COc1ccc2c(c1OC)C(=O)OC2C1c2c(cc3c(c2OC)OCO3)CCN1C` [(S,R)-Noscapine], the L1 promoter activity was 85.3 ± 11 under setting [10]; 40.8 ± 2.2 under setting [11]; 80.1 ± 20 under setting [12]; 33.3 ± 5.6 under setting [13]; 68.2 ± 9.4 under setting [8]; 30.4 ± 4.2 under setting [9].

For `CC(=O)Nc1ccc(O)cc1` [Acetaminophen], the L1 promoter activity is 116 ± 12 (concentration (uM unless unit written): 10000, treatment time: 6 h); 131 ± 18 (concentration (uM unless unit written): 10000, treatment time: 24 h); 115 ± 9.1 (concentration (uM unless unit written): 20000, treatment time: 6 h).

The compound `CC(=O)Oc1ccccc1C(=O)O` [Acetylsalicylic acid] showed an L1 promoter activity under setting [16] of 103 ± 7.2; an L1 promoter activity under setting [17] of 98.7 ± 9.5; an L1 promoter activity under setting [18] of 115 ± 11; an L1 promoter activity under setting [19] of 88.3 ± 11; an L1 promoter activity under setting [14] of 107 ± 3.8; an L1 promoter activity under setting [15] of 105 ± 9.7. The L1 promoter activity was determined as 106 ± 8.5 under setting [4]; 98.2 ± 29 under setting [5]; 123 ± 23 under setting [6]; 112 ± 13 under setting [12]; 105 ± 8.4 under setting [13]; 114 ± 14 under setting [8]. The compound also yielded an L1 promoter activity under setting [9] of 86 ± 5.1; an L1 promoter activity under setting [20] of 107 ± 12; an L1 promoter activity under setting [21] of 91.3 ± 6; an L1 promoter activity (concentration (uM unless unit written): 2000, treatment time: 6 h) of 95.4 ± 8; an L1 promoter activity (concentration (uM unless unit written): 2000, treatment time: 24 h) of 67.7 ± 5.9; an L1 promoter activity (concentration (uM unless unit written): 3000, treatment time: 6 h) of 105 ± 4. Besides, the L1 promoter activity reads like this: (concentration (uM unless unit written): 3000, treatment time: 24 h) 53.3 ± 2.5; (concentration (uM unless unit written): 5000, treatment time: 6 h) 111 ± 15; (concentration (uM unless unit written): 5000, treatment time: 24 h) 40.8 ± 1.2.

For the compound `Cc1c2oc3c(C)ccc(C(=O)N[C@@H]4C(=O)N[C@H](C(C)C)C(=O)N5CCC[C@H]5C(=O)N(C)CC(=O)N(C)[C@@H](C(C)C)C(=O)O[C@@H]4C)c3nc-2c(C(=O)N[C@@H]2C(=O)N[C@H](C(C)C)C(=O)N3CCC[C@H]3C(=O)N(C)CC(=O)N(C)[C@@H](C(C)C)C(=O)O[C@@H]2C)c(N)c1=O` [Actinomycin D], the L1 promoter activity is, setting by setting: (concentration (uM unless unit written): 0.0025, treatment time: 6 h) 132 ± 34; (concentration (uM unless unit written): 0.005, treatment time: 6 h) 112 ± 12; (concentration (uM unless unit written): 0.01, treatment time: 6 h) 110 ± 36; (concentration (uM unless unit written): 0.01, treatment time: 24 h) 144 ± 19.

In the case of `CCC1(c2ccc(N)cc2)CCC(=O)NC1=O` (stereo not drawn) [Aminoglutethimide], the L1 promoter activity is 140 ± 58 under setting [12]; 126 ± 11 under setting [13]; 136 ± 35 under setting [8]; 102 ± 16 under setting [9]; 96 ± 7.4 under setting [20].

Turning to `CCOC(=O)C1=C(COCCN)NC(C)=C(C(=O)OC)C1c1ccccc1Cl` (stereo not drawn) [Amlodipine besylate], the L1 promoter activity reads like this: under setting [22], 93.6 ± 11; under setting [23], 105 ± 8.9; under setting [16], 104 ± 10; under setting [17], 101 ± 22; (concentration (uM unless unit written): 2, treatment time: 6 h) 95.7 ± 7.8; (concentration (uM unless unit written): 2, treatment time: 24 h) 107 ± 12. The L1 promoter activity under setting [14] amounted to 85.2 ± 8.2.

With `CCCCCC[C@H]1C(=O)O[C@H](C)[C@H](NC(=O)c2cccc(NC=O)c2O)C(=O)O[C@@H](C)[C@@H]1OC(=O)CC(C)C` [Antimycin A], the L1 promoter activity was determined as 101 ± 17 (concentration (uM unless unit written): 0.075, treatment time: 6 h); 115 ± 21 (concentration (uM unless unit written): 0.075, treatment time: 24 h); 101 ± 5.7 under setting [16]; 109 ± 8.4 under setting [17].

`Cc1cn([C@H]2C[C@H](N=[N+]=[N-])[C@@H](CO)O2)c(=O)[nH]c1=O` [Azidothymidine]: the L1 promoter activity is 107 ± 25 under setting [4]; 106 ± 26 under setting [6]; 111 ± 27 under setting [2]; 104 ± 13 under setting [3]; 110 ± 7.2 under setting [21].

For the compound `c1ccc2c(c1)cc1ccc3cccc4ccc2c1c34` [Benzo(a)pyrene], the L1 promoter activity was 102 ± 12 under setting [22]; 132 ± 17 under setting [23]; 117 ± 12 under setting [16]; 140 ± 22 under setting [17]; 133 ± 18 under setting [18]; 187 ± 37 under setting [19].

Turning to `CC(C)(Oc1ccc(CCNC(=O)c2ccc(Cl)cc2)cc1)C(=O)O` [Bezafibrate], the L1 promoter activity worked out at 115 ± 13 under setting [14]; 105 ± 4.7 under setting [15]; 140 ± 11 under setting [6]; 133 ± 13 under setting [7]; 174 ± 14 under setting [20].

On to `CN(Cc1cc(Br)cc(Br)c1N)C1CCCCC1` [Bromhexine hydrochloride], for which the L1 promoter activity came to 108 ± 14 (concentration (uM unless unit written): 62.5, treatment time: 6 h); 102 ± 7.2 (concentration (uM unless unit written): 62.5, treatment time: 24 h); 97.8 ± 12 under setting [10]; 98.7 ± 12 under setting [11].

In the case of `CS(=O)(=O)OCCCCOS(C)(=O)=O` [Busulfan], the L1 promoter activity is, setting by setting: under setting [6], 111 ± 33; under setting [12], 119 ± 29; under setting [8], 131 ± 39; under setting [9], 122 ± 39.
